Laboratory results: paper PMC3242417 (Bioorganic & medicinal chemistry letters, 2011)
Where two headings read alike, the source gives them in different places.

Assays:
[1] = in vitro; details: human
[2] = in vitro; details: human; remark: listed apart in the source
[3] = tested on: HCV replicon; assay: microbe, parasite or virus in culture; assay type: cell-based; details: for EC90: read-out: Anti-HCV EC90; for EC50: read-out: Anti-HCV EC50
[4] = in vitro
[5] = tested on: HIV-1; assay: microbe, parasite or virus in culture; assay type: cell-based; details: for EC50: read-out: Anti-HIV-1 EC50
[6] = tested on: wild-type HBV; assay type: cell-based; details: in vitro
[7] = tested on: four different cell lines
[8] = tested on: CEM cells
[9] = tested on: VERO cells
[10] = tested on: PBM cells
[11] = tested on: HepG2 cells; assay: Toxicity to HepG2 cells; assay type: cell-based; details: data not shown
[12] = tested on: Huh-7 cells; assay: Cellular pharmacology: intracellular metabolites in Huh-7 cells by LC-MS/MS; assay type: in vitro ADME; details: 50 μM, 37°C, 4 h
[13] = Human immunodeficiency virus 1, read-out: Anti-HIV-1 EC90

With `CCc1cn([C@@H]2O[C@H](CO)[C@@H](O)[C@@]2(C)F)c2ncnc(N)c12` [Compound 9] the CC50 at 96 h [1] was > 10 µM, the IC50 [2] was > 100 µM and the EC90 ([3]; Hepatitis C virus, Huh-7, 96 h) was > 10 µM.
With `C[C@@]1(F)[C@H](O)[C@@H](CO)O[C@H]1n1cc(F)c2c(N)ncnc21` [Compound 5b] the CC50 at 96 h [1] was > 10 µM and the IC50 [4] was > 100 µM.
With `C[C@@]1(F)[C@H](O)[C@@H](CO)O[C@H]1n1cc(I)c2c(N)nc(N)nc21` [Compound 5g] the EC90 [5, 13] was > 100 µM.
For `C[C@@]1(F)[C@H](O)[C@@H](CO)O[C@@H]1n1cc(C#Cc2ccccc2)c2c(N)ncnc21` [Compound 16], the “anti-HIV-1 activity (in words)” value [5] was “anti-HIV-1 activity” and the “anti-HBV activity (in words)” value [6] was “no anti-HBV activity”.
In the case of `C#Cc1cn([C@@H]2O[C@H](CO)[C@@H](O)[C@@]2(C)F)c2nc(N)nc(N)c12` [Compound 15], the CC50 at 96 h [1] is reported as > 10 µM and the EC90 ([3]; Hepatitis C virus, Huh-7, 96 h) is reported as > 10 µM.
In the case of `CNc1ncnc2c1c(F)cn2[C@@H]1O[C@H](CO)[C@@H](O)[C@@]1(C)F` [Compound 5h], the IC50 [2] is reported as > 100 µM and the IC50 [4] is reported as > 100 µM.
In the case of `C#Cc1cn([C@@H]2O[C@H](CO)[C@@H](O)[C@@]2(C)F)c2ncnc(N)c12` [Compound 13], the CC50 at 96 h [1] is reported as > 10 µM, the IC50 [2] is reported as > 100 µM and the EC90 ([3]; Hepatitis C virus, Huh-7, 96 h) is reported as > 10 µM.
For `COC(=O)/C=C/c1cn([C@@H]2O[C@H](CO)[C@@H](O)[C@@]2(C)F)c2ncnc(N)c12` [Compound 11], the CC50 at 96 h [1] was > 10 µM, the IC50 [2] was > 100 µM and the IC50 [4] was > 100 µM.
With `C#Cc1cn([C@H]2O[C@H](CO)[C@@H](O)[C@@]2(C)F)c2nc(N)nc(N)c12` [Compound 14] the “anti-HIV-1 activity (in words)” value [5] was “anti-HIV-1 activity” and the “anti-HBV activity (in words)” value [6] was “no anti-HBV activity”.
With `C[C@@]1(F)[C@H](O)[C@@H](CO)O[C@H]1n1cc(Cl)c2c(N)ncnc21` [Compound 5c] the EC90 [5, 13] was > 100 µM.
With `C[C@@]1(F)[C@H](O)[C@@H](CO)O[C@@H]1n1cc(Cl)c2c(N)ncnc21` [Compound 4c] the CC50 at 96 h [1] was > 10 µM and the EC90 ([3]; Hepatitis C virus, Huh-7, 96 h) was > 10 µM.
For `C[C@@]1(F)[C@H](O)[C@@H](CO)O[C@@H]1n1cc(I)c2c(N)nc(N)nc21` [Compound 4g], the CC50 at 96 h [1] was > 10 µM and the EC90 ([3]; Hepatitis C virus, Huh-7, 96 h) was > 10 µM.
With `C=Cc1cn([C@H]2O[C@H](CO)[C@@H](O)[C@@]2(C)F)c2ncnc(N)c12` [Compound 6] the “anti-HCV activity (in words)” value ([3]; HCV replicon) was “moderate anti-HCV activity”, the “toxicity (in words)” value [7] was “strong toxicity across all cell lines” and the “anti-HIV-1 activity (in words)” value [5] was “anti-HIV-1 activity”.
For `C[C@@]1(F)[C@H](O)[C@@H](CO)O[C@@H]1n1cc(F)c2c(N)ncnc21` [Compound 4b], the EC90 ([3]; Hepatitis C virus, Huh-7, 96 h) was > 10 µM, the EC90 [5, 13] was > 100 µM and the IC50 [4] was > 100 µM.
In the case of “4-amino-7-iodo-1-(2-deoxy-2-fluoro-2-C-methyl-β-D-ribofuranosyl)-1H-pyrrolo[2,3-d]pyrimidine [Compound 5e]”, the “anti-HCV activity (in words)” value ([3]; HCV replicon) is reported as “modest anti-HCV activity”, the EC50 ([3]; HCV replicon, 96 h) is reported as 1.1 µM and the EC90 ([3]; HCV replicon, 96 h) is reported as > 33 µM. For the same compound, the IC50 [8] was 24 µM, the “toxicity (in words)” value [7] was “toxicity” and the EC50 [5] was 94 µM. For the same compound, the EC90 ([5]; read-out: Anti-HIV-1 EC90) was > 100 µM, the IC50 [9] was 21.4 µM and the IC50 [10] was 53.2 µM.
In the case of `C[C@@]1(F)[C@H](O)[C@@H](CO)O[C@H]1n1cc(C#Cc2ccccc2)c2c(N)ncnc21` [Compound 17], the EC90 ([3]; Hepatitis C virus, Huh-7, 96 h) is reported as > 10 µM, the “anti-HIV-1 activity (in words)” value [5] is reported as “anti-HIV-1 activity” and the “toxicity to HepG2 cells (in words)” value [11] is reported as “toxicity to HepG2 cells”. The “anti-HBV activity (in words)” value [6] was “weak anti-HBV activity”.
With `C[C@@]1(F)[C@H](O)[C@@H](CO)O[C@H]1n1ccc2c(N)ncnc21` [Compound 5a] the IC50 [2] was > 100 µM and the IC50 [4] was > 100 µM.
For `C[C@@]1(F)[C@H](O)[C@@H](CO)O[C@@H]1n1cc(Br)c2c(N)ncnc21` [Compound 4d], the EC90 ([3]; Hepatitis C virus, Huh-7, 96 h) was > 10 µM and the EC90 [5, 13] was > 100 µM.
With `COc1ncnc2c1ccn2[C@@H]1O[C@H](CO)[C@@H](O)[C@@]1(C)F` [Compound 5i] the CC50 at 96 h [1] was > 10 µM, the IC50 [2] was > 100 µM and the IC50 [4] was > 100 µM.
In the case of `CCc1cn([C@H]2O[C@H](CO)[C@@H](O)[C@@]2(C)F)c2ncnc(N)c12` [Compound 8], the IC50 [2] is reported as > 100 µM and the EC90 [5, 13] is reported as > 100 µM.
For `C[C@@]1(F)[C@H](O)[C@@H](CO)O[C@@H]1n1ccc2c(N)ncnc21` [Compound 4a], the CC50 at 96 h [1] was > 10 µM, the IC50 [2] was > 100 µM and the EC90 ([3]; Hepatitis C virus, Huh-7, 96 h) was > 10 µM. The EC90 [5, 13] was > 100 µM and the IC50 [4] was > 100 µM.
With `C[C@@]1(F)[C@H](O)[C@@H](CO)O[C@@H]1n1ccc2c(N)nc(N)nc21` [Compound 4f] the CC50 at 96 h [1] was > 10 µM, the IC50 [2] was > 100 µM and the EC90 ([3]; Hepatitis C virus, Huh-7, 96 h) was > 10 µM. For the same compound, the IC50 [4] was > 100 µM.
For `CNc1ncnc2c1c(F)cn2[C@H]1O[C@H](CO)[C@@H](O)[C@@]1(C)F` [Compound 4h], the CC50 at 96 h [1] was > 10 µM, the IC50 [2] was > 100 µM and the EC90 ([3]; Hepatitis C virus, Huh-7, 96 h) was > 10 µM. The EC90 [5, 13] was > 100 µM and the IC50 [4] was > 100 µM.
In the case of “4-amino-7-iodo-1-(2-deoxy-2-fluoro-2-C-methyl-α-D-ribofuranosyl)-1H-pyrrolo[2,3-d]pyrimidine [Compound 4e]”, the “anti-HCV activity (in words)” value ([3]; HCV replicon) is reported as “modest anti-HCV activity”, the EC50 ([3]; HCV replicon, 96 h) is reported as 7 µM and the EC90 ([3]; HCV replicon, 96 h) is reported as 24.9 µM. The IC50 [8] was 40.9 µM, the “toxicity (in words)” value [7] was “toxicity” and the EC50 [5] was > 100 µM. For the same compound, the EC90 ([5]; read-out: Anti-HIV-1 EC90) was > 100 µM, the IC50 [9] was 65.9 µM and the IC50 [10] was > 100 µM. For the same compound, the “toxicity to HepG2 cells (in words)” value [11] was “toxicity to HepG2 cells” and the “anti-HBV activity (in words)” value [6] was “weak anti-HBV activity”.
For `C[C@@]1(F)[C@H](O)[C@@H](CO)O[C@H]1n1ccc2c(N)nc(N)nc21` [Compound 5f], the IC50 [2] was > 100 µM, the “deamination to 7-deazaguanosine nucleoside or nucleoside phosphate” value [12] was “no deamination had occurred” and the “nucleoside triphosphate found intracellularly” value [12] was “only a trace amount of nucleoside triphosphate was found”. The EC90 [5, 13] was > 100 µM and the IC50 [4] was > 100 µM.
In the case of `C=Cc1cn([C@@H]2O[C@H](CO)[C@@H](O)[C@@]2(C)F)c2ncnc(N)c12` [Compound 7], the “toxicity (in words)” value [7] is reported as “exhibited toxicity in the ribosomal RNA assay and in three independent cell lines” and the “anti-HIV-1 activity (in words)” value [5] is reported as “anti-HIV-1 activity”.
With `COC(=O)/C=C/c1cn([C@H]2O[C@H](CO)[C@@H](O)[C@@]2(C)F)c2ncnc(N)c12` [Compound 10] the IC50 [2] was > 100 µM, the EC90 ([3]; Hepatitis C virus, Huh-7, 96 h) was > 10 µM and the “concentration up to which no cytotoxicity was observed” value ([7]; four different cell lines) was > 100 µM. For the same compound, the “anti-HIV-1 activity (in words)” value [5] was “strong anti-HIV-1 activity”, the IC50 [4] was > 100 µM and the “anti-HBV activity (in words)” value [6] was “no anti-HBV activity”.
For `COc1ncnc2c1ccn2[C@H]1O[C@H](CO)[C@@H](O)[C@@]1(C)F` [Compound 4i], the IC50 [2] was > 100 µM, the EC90 ([3]; Hepatitis C virus, Huh-7, 96 h) was > 10 µM and the IC50 [4] was > 100 µM.
For `CCOC(=O)[C@H](C)NP(=O)(OC[C@H]1O[C@@H](n2ccc3c(N)nc(N)nc32)[C@](C)(F)[C@@H]1O)Oc1ccccc1` (some centres unmarked) [Compound 20], the “deamination to 7-deazaguanosine nucleoside or nucleoside phosphate” value [12] was “no deamination had occurred” and the “nucleoside triphosphate found intracellularly” value [12] was “only a trace amount of nucleoside triphosphate was found”.
For `C#Cc1cn([C@H]2O[C@H](CO)[C@@H](O)[C@@]2(C)F)c2ncnc(N)c12` [Compound 12], the IC50 [2] was > 100 µM and the EC90 [5, 13] was > 100 µM.
